Assay results reported in ChEMBL document CHEMBL1201862, “PubChem BioAssay data set” (2004).
Activity calls are given as the source filed them.

Tests used:
[1] = biological target: T1, Cytochrome P450 1A2 (Homo sapiens, UniProt P05177);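 also: PubChem cytochrome P450 panel assay, CYP1A2 panel member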
T1 sequence (P05177 whole entry): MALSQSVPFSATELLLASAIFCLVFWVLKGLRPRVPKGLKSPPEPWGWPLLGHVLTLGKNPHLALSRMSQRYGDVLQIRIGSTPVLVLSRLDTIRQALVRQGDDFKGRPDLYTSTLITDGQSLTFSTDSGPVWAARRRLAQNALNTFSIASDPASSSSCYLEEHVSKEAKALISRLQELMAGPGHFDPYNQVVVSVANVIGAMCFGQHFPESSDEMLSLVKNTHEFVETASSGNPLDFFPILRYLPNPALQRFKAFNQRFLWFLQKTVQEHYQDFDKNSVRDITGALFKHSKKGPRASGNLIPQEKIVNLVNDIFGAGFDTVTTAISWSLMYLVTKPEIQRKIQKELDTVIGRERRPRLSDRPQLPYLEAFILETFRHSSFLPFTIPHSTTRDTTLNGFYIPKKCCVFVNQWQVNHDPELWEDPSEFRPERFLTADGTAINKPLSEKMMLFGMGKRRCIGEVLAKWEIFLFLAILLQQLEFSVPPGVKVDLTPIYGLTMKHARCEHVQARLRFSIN

[2] = biological target: Cytochrome P450 2C9 (Homo sapiens, UniProt P11712)
[3] = blockers of CRF-binding protein–CRF-R2 complex – cell-based, uHTS hits, 384-well, dose response (AID 651639); type: functional, Homo sapiens; settings: read-out: IC50_Mean
[4] = biological target: T2, Corticotropin-releasing factor receptor 2/Corticotropin-releasing factor-binding protein (Homo sapiens, UniProt P24387+Q13324); test: Dose Response confirmation of uHTS hits for small molecule antagonists of the CRF-binding protein and CRF-R2 receptor complex.; type: functional; settings: read-out: IC50_Mean
T2 sequence (Q13324 whole entry): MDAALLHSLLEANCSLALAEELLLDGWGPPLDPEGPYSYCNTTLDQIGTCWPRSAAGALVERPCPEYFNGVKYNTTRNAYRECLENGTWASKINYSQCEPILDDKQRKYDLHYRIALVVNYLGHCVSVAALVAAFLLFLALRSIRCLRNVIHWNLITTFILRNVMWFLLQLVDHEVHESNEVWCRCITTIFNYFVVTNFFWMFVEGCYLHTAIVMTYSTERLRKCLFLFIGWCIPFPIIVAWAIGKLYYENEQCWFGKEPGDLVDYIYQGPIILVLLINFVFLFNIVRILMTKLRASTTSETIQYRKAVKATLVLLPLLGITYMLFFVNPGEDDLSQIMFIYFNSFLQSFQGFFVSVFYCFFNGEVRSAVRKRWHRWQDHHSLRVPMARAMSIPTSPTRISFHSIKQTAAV
T2 sequence (P24387 whole entry): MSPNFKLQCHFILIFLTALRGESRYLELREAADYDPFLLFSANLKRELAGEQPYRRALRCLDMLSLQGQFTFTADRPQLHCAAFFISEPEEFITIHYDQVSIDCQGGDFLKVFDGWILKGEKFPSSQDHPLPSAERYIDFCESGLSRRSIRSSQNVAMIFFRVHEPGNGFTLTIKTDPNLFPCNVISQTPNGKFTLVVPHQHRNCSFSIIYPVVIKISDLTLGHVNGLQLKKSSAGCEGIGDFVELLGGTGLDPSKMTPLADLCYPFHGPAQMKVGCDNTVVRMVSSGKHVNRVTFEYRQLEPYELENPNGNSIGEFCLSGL

[5] = biological target: T2, Corticotropin-releasing factor receptor 2/Corticotropin-releasing factor-binding protein; test: activators of CRF receptor 2 with binding protein – uHTS hits, confirmation (AID 602473); type: functional; settings: read-out: EC50_Mean
[6] = tested on: Vero; test: viability of Vero cells under compound – cytotoxicity control for flavivirus capping enzyme inhibitors (AID 588742); type: functional; settings: Chlorocebus sabaeus
[7] = biological target: Genome polyprotein (dengue virus type 2, UniProt P29990); test: flavivirus cap methylation enzyme inhibition – biochemical, confirmation dose response, primary screen (AID 588689); type: functional
[8] = biological target: Beta-galactosidase (Escherichia coli, UniProt Q8VNN2); test: PubChem AID 485352; type: functional
[9] = biological target: T3, Type-1 angiotensin II receptor (Homo sapiens, UniProt P30556); test: antagonism of angiotensin II type 1 receptor – cell-based, uHTS hits, selectivity assay for APJ receptor antagonist project, dose response (AID 463214); type: functional;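 also: antagonist potency against angiotensin II stimulated AT1 response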
T3 sequence (P30556 whole entry): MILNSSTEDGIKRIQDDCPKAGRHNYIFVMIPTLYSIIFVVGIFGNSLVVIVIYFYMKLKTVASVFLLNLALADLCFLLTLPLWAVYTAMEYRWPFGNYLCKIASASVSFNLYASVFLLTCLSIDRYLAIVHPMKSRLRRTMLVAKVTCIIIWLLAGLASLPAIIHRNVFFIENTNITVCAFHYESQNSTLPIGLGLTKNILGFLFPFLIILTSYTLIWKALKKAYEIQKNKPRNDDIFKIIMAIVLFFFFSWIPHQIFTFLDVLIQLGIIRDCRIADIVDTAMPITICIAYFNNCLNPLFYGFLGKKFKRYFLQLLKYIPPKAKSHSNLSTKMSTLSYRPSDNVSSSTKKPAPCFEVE

[10] = tested on: HEK293; test: EBV LMP1 TES2 canonical NF-kB signalling blockers – cell-based, HEK293, luciferase, cherry-pick, dose response (AID 588343); type: functional; settings: Homo sapiens
[11] = biological target: Cytochrome P450 2D6 (Homo sapiens, UniProt P10635);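 also: CYP2D6 member of a cytochrome P450 panel assay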
[12] = biological target: T4, Estrogen receptor (Homo sapiens, UniProt P03372);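 also: potency for inhibiting coactivator peptide recruitment to the receptor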
T4 sequence (P03372 whole entry): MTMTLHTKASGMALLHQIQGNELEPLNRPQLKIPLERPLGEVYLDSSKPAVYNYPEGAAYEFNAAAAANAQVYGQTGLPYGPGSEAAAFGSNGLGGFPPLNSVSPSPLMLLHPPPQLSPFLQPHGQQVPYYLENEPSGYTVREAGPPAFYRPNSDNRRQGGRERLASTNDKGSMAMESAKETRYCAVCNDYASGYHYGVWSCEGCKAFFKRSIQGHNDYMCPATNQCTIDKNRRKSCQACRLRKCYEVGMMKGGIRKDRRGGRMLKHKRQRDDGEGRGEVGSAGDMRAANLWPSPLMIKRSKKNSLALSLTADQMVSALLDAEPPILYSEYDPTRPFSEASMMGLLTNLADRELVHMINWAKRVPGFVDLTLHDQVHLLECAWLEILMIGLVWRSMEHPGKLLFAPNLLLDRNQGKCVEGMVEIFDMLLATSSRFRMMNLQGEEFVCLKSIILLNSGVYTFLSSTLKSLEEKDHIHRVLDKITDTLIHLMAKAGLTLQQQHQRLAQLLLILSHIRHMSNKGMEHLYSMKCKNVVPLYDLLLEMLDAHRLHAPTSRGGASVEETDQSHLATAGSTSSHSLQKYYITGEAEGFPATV

[13] = tested on: Streptococcus sp. 'group A'; test: Streptococcus pyogenes SK(-)GAS viability under kanamycin – luminescence, BacTiterGlo, confirmation, counter-screen for streptokinase expression inhibitor project, dose response (AID 1900); type: functional, organism-based
[14] = biological target: T5, Streptokinase A (Streptococcus pyogenes serotype M1, UniProt P10520); test: viability-normalized secreted streptokinase activity reduction – plasminogen activation absorbance, OD405, dose response (AID 1914); type: functional, Streptococcus pyogenes M1 GAS;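 also: secreted streptokinase activity via plasminogen activation per viability signal from cell pellet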
T5 sequence (P10520 whole entry): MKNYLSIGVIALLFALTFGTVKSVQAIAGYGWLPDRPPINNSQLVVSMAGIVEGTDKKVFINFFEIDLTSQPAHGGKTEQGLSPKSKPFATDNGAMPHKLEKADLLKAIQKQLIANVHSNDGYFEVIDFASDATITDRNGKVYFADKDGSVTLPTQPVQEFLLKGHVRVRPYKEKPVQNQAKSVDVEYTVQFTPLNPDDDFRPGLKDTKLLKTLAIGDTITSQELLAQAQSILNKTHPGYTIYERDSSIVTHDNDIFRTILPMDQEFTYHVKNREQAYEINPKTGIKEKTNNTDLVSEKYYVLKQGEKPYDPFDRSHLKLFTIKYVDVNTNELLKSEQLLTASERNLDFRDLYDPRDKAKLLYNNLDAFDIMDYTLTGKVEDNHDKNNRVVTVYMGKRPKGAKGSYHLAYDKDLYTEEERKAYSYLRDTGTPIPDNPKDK

[15] = tested on: Streptococcus; test: GAS UMAA2166 growth inhibition – luminescence, BacTiterGlo, counter-screen for streptokinase expression inhibitor project, dose response (AID 1915); type: functional, organism-based;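 also: potency for reduction of bacterial viability or growth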
[16] = tested on: BJ; test: BJ-TERT fibroblast viability loss – cell-based, RAS-independent, luminescence, dose response (AID 1933); type: functional; settings: Homo sapiens
[17] = DRD fibroblast viability loss – cell-based, non-viral oncogenic, luminescence, dose response (AID 1934); type: functional; settings: Homo sapiens
[18] = tested on: BJ; test: BJ-TERT-LT-ST fibroblast viability loss – cell-based, RAS-independent, luminescence, dose response (AID 1935); type: functional; settings: Homo sapiens;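 also: BJ fibroblasts immortalized with TERT plus LT and ST oncogenes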
[19] = tested on: BJ; test: cells; type: functional, cell-based; settings: Homo sapiens
[20] = biological target: NAD-dependent protein deacylase sirtuin-5, mitochondrial (Homo sapiens, UniProt Q9NXA8); test: sirtuin-5 deacylation blockers, concentration series – biochemical, fluorescence imaging, cherry-pick, set 5, dose response (AID 720591);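 also: desuccinylation of succinyl peptide AMC substrate read as fluorescence after trypsin release; potency of inhibitors that lower fluorescence and may act on trypsin instead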
[21] = biological target: T6, Rac GTPase-activating protein 1 (Homo sapiens, UniProt Q9H0H5); test: blockers of MgcRacGAP-driven Rac1 GTP hydrolysis – biochemical, ADP Hunter fluorescence, primary and confirmatory, confirmation (AID 624330); type: functional
T6 sequence (Q9H0H5 whole entry): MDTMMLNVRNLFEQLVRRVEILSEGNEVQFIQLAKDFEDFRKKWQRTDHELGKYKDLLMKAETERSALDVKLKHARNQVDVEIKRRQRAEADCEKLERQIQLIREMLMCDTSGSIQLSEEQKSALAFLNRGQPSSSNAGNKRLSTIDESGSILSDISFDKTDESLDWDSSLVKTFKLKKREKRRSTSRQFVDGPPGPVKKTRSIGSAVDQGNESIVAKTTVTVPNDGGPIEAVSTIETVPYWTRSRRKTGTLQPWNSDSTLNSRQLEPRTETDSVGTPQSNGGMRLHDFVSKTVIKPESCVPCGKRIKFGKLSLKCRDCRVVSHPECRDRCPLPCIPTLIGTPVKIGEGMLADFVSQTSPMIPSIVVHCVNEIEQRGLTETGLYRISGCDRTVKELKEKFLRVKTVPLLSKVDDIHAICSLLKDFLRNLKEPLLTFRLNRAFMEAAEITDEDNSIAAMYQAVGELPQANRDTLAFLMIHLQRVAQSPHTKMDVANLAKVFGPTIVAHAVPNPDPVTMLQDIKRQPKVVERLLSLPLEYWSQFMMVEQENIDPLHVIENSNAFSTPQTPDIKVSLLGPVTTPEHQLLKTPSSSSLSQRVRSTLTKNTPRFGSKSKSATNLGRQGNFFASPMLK

Sequence of NAD-dependent protein deacylase sirtuin-5, mitochondrial (Q9NXA8 whole entry): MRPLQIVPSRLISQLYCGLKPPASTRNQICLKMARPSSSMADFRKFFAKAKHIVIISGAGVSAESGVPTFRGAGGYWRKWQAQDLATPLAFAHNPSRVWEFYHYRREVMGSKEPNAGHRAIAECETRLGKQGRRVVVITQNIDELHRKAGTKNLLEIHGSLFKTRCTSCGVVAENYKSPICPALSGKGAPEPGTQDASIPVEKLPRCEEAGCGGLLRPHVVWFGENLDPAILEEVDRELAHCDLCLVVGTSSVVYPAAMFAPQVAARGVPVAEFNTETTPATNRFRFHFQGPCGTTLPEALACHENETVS
Sequence of Cytochrome P450 2C9 (P11712 whole entry): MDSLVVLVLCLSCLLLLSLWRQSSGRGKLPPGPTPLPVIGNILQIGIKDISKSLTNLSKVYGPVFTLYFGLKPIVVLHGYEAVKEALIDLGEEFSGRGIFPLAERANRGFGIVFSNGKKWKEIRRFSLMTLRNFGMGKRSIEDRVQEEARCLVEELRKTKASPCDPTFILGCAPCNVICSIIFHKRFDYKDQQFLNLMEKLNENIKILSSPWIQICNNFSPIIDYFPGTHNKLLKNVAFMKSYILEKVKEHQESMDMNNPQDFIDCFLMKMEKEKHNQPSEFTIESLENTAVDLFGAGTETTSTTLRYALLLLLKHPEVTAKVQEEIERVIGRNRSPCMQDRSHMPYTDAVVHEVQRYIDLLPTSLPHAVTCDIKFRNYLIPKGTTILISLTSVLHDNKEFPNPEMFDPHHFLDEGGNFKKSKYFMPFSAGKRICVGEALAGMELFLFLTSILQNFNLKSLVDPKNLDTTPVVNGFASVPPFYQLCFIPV
Sequence of Cytochrome P450 2D6 (P10635 whole entry): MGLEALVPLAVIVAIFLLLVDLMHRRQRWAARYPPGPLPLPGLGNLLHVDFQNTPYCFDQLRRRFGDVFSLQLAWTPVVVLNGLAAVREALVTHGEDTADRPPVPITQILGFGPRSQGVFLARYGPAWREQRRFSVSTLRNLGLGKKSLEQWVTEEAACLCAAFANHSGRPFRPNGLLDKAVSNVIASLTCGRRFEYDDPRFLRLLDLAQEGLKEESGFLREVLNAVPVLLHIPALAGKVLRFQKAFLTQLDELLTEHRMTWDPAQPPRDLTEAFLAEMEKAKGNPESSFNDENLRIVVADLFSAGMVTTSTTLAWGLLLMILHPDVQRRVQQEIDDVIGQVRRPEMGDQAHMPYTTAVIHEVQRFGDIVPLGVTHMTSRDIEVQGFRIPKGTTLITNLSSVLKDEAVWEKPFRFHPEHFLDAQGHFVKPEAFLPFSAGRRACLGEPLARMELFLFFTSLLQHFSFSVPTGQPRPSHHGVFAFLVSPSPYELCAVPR
Sequence of Genome polyprotein (P29990 2492-3391 limits assumed): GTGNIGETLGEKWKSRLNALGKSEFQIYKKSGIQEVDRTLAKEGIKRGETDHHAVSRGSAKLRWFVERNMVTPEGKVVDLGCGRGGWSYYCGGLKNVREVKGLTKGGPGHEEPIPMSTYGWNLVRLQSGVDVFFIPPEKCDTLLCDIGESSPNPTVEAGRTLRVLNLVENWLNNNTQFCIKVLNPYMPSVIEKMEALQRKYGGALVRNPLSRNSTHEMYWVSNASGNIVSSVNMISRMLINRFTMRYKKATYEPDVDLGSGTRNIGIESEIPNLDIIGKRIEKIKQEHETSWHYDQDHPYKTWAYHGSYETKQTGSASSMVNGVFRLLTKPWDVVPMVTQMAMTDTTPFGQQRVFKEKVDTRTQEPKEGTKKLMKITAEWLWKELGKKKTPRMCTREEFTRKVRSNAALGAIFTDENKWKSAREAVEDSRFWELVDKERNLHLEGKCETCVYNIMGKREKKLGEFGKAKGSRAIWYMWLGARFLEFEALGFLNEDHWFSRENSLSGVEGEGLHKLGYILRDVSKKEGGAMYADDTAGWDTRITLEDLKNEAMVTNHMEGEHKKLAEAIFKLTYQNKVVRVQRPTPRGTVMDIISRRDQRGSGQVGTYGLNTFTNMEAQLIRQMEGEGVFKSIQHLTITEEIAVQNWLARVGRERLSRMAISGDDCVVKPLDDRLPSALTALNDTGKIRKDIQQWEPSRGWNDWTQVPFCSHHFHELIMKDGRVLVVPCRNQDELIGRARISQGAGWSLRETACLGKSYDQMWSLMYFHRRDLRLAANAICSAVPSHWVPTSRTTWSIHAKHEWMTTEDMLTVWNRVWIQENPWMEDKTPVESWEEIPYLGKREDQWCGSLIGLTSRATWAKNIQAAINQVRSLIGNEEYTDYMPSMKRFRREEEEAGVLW
Sequence of Beta-galactosidase (Q8VNN2 whole entry): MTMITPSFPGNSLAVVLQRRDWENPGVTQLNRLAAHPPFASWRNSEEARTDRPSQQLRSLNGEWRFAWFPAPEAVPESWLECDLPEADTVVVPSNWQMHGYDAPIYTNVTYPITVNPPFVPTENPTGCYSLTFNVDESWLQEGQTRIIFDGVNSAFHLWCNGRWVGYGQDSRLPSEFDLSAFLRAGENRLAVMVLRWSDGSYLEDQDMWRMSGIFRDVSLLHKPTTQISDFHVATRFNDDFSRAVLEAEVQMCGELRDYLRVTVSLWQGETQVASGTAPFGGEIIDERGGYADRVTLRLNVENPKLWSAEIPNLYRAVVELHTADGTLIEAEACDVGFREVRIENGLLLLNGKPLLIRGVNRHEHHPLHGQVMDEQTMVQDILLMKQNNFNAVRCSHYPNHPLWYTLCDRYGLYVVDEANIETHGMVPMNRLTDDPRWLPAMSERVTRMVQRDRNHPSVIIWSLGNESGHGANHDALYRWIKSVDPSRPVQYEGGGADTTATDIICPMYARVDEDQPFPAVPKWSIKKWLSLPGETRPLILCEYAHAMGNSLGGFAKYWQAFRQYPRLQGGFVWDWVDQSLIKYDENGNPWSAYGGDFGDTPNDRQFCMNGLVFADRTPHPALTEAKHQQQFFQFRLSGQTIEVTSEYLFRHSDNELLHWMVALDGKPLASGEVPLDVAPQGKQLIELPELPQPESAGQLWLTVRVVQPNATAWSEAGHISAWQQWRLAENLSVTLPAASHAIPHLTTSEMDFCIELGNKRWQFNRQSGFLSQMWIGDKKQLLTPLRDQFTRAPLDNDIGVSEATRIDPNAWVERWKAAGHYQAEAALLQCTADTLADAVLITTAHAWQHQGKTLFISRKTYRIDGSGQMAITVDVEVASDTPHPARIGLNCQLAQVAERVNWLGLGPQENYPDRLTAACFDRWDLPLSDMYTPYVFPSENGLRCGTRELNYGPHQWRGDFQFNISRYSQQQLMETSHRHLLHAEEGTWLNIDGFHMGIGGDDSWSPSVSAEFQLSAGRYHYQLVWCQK

SMILES: O=C(c1coc(=O)c2ccccc12)N1CCN(Cc2ccccc2)CC1
- AC50 [1]: 10 µM (inconclusive)
- AC50 [2]: inconclusive

SMILES: Cc1nn(Cc2ccccc2)c(Cl)c1C(=O)NC1CCCc2ccccc21 (centres undefined)
- IC50 [3]: 11.9 µM (active)
- IC50 [4]: 6.77 µM (active)
- EC50 [5]: > 53 µM (inactive)

SMILES: CCOC(=O)c1sc(N2N=C(C)/C(=C\c3ccc(OCC(=O)OC)cc3)C2=O)nc1C
- CC50 [6]: 39.2 µM (active)
- IC50 [7]: 90.7 µM (active)

SMILES: CCCCNC(=S)NNC(=O)CCn1nc(C)c(Br)c1C
- EC50 [8]: > 40 µM (inactive)
- AC50 [2]: inconclusive
- IC50 [9]: > 40 µM (not active)

SMILES: CN(C)c1ccnc2sc(C(N)=O)c(N)c12
- AC50 [10]: 3.08 µM (active)

SMILES: Clc1ccccc1NN(Cc1ccncc1)c1ccccc1Cl
- IC50 [3]: > 20 µM (inactive)
- IC50 [4]: < 0.368 µM (active)
- EC50 [5]: > 53 µM (inactive)
- AC50 [11]: 3.16 µM (inconclusive)

SMILES: Cc1nn(Cc2ccc(C(=O)Nc3nc4c(C)cccc4s3)o2)c(C)c1Br
- IC50 [12]: > 50 µM (not active)
- EC50 [13]: 4.94 µM (active)
- EC50 [14]: 5.58 µM (active)
- EC50 [15]: 8.54 µM (active)

SMILES: CC(C)OC(=O)c1ccccc1C(=O)c1ccc(N)c([N+](=O)[O-])c1
- IC50 [3]: > 20 µM (inactive)
- IC50 [4]: 38.6 µM (active)
- EC50 [16]: > 150 µM (not active)
- EC50 [5]: > 53 µM (inactive)
- EC50 [17]: > 150 µM (not active)
- EC50 [18]: > 150 µM (not active)
- EC50 [19]: > 150 µM (not active)

SMILES: COc1ccc(C(=O)Nc2cc(O)nc3ncnn23)cc1
- AC50 [20]: 8.75 µM (active)

SMILES: C=CCc1cc(OC)ccc1OCCN1CC(C)OC(C)C1 (centres undefined)
- IC50 [21]: 70.5 µM (active)
- AC50 [20]: > 30 µM (inactive)
